Measured values: article PMC6021502, “Cannabigerol Action at Cannabinoid CB1 and CB2 Receptors and at CB1–CB2 Heteroreceptor Complexes” (Frontiers in Pharmacology, 2018)
Read-outs that look alike come from different tables or passages of the source.

How the values were obtained:
human CB2 receptor [1] = molecular target: T1, human CB2 receptor (Homo sapiens, UniProt P34972); assay: [3H]-CP-55940 competition binding, CHO membranes; details: radioligand 0.3 nM [3H]-CP-55940, CHO membranes
T1 construct: expressed in transfected cells; membranes

human CB2 receptor [2] = molecular target: T1, human CB2 receptor; assay: [3H]-WIN-55,212-2 competition binding, CHO membranes
AEA cell uptake = test system: AEA cell uptake; set-up: method as in De Petrocellis et al., 2011; details: ref De Petrocellis et al., 2011; read-out: Ki, inhibitor of AEA cell uptake; cited from earlier work
5HT1A receptor = test system: 5HT1A receptor; set-up: method as in Cascio et al., 2010; details: stimulation by 1 μM 8-OH-DPAT; ref Cascio et al., 2010; cited from earlier work
CB1R [3] = test system: T2, CB1R; assay: β-arrestin 2 recruitment (BRET) in HEK-293T cells; type: cell-based, human
T2 construct: expressed in transfected cells; host or cells: HEK-293T, transient transfection (PEI)
Procedure: (§1) HEK-293T cells were grown in DMEM medium (Gibco, Paisley, Scotland, United Kingdom) supplemented with 2 mM L-glutamine, 100 U/mL penicillin/streptomycin, MEM Non-Essential Amino Acids Solution (1/100) and 5% (v/v) heat inactivated Foetal Bovine Serum (FBS) (Invitrogen, Paisley, Scotland, United Kingdom). […] Cells were transiently transfected with the PEI (Polyethylenimine, Sigma, St. Louis, MO, United States) method as previously described ([Medrano et al., 2017]; [Navarro et al., 2018b]) and used for functional assays 48 h later (unless otherwise stated).
(§2) Arrestin recruitment was determined as previously described ([Medrano et al., 2017]; [Navarro et al., 2018b]). Briefly, BRET experiments were performed in HEK-293T cells 48 h after transfection with the cDNA corresponding to the CB2R-YFP or CB1R-YFP and 1 μg cDNA corresponding to β-arrestin 2-Rluc. Cells (20 μg protein) were distributed in 96-well microplates (Corning 3600, white plates with white bottom) and were incubated with CBG for 15 min and stimulated with the agonist for 10 min prior the addition of 5 μM coelenterazine H (Molecular Probes, Eugene, OR, United States). After 1 min of adding coelenterazine H, BRET between β-arrestin 2-Rluc and receptor-YFP was determined and quantified. The readings were collected using a Mithras LB 940 (Berthold Technologies, Bad Wildbad, Germany) that allows the integration of the signals detected in the short-wavelength filter at 485 nm and the long-wavelength filter at 530 nm. To quantify protein-RLuc expression luminescence readings were also performed 10 min of adding 5 μM coelenterazine H.

CB2R [4] = test system: T3, CB2R; assay: β-arrestin 2 recruitment (BRET) in HEK-293T cells; type: cell-based, human
T3 construct: expressed in transfected cells; host or cells: HEK-293T, transient transfection (PEI)
Procedure: as §1, §2

CB2R [5] = details: cited from earlier work
α2-adrenoceptor = test system: α2-adrenoceptor; set-up: method as in Cascio et al., 2010; details: ref Cascio et al., 2010; read-out: EC50 as α2-adrenoceptor agonist; cited from earlier work
mouse brain membranes = test system: mouse brain membranes; set-up: method as in Cascio et al., 2010; details: 10 μM CBG, mouse brain membranes treated with AEA or CP-55940; ref Cascio et al., 2010; cited from earlier work
[6] = test system: T4, CB1R and CB2R (CB1–CB2 heteroreceptor complexes); assay: β-arrestin 2 recruitment (BRET) in HEK-293T cells co-expressing both receptors; type: cell-based, human
T4 construct: expressed in transfected cells; host or cells: HEK-293T, transient co-transfection (PEI)
Procedure: as §1
as §2, with “Cells (20 μg protein) were distributed in 96-well microplates (Corning 3600, white plates with white bottom) and were incubated with CBG for 15 min and stimulated with the agonist for 10 min prior the addition of 5 μM coelenterazine H (Molecular Probes, Eugene, OR, United States).” left out

[7] = test system: T4, CB1R and CB2R (CB1–CB2 heteroreceptor complexes); assay: cAMP determination in HEK-293T cells co-expressing both receptors; type: cell-based, human
Procedure: as §1
Signaling experiments have been performed as previously described ([Navarro et al., 2010], [2016], [2018b]; [Hinz et al., 2018]). Two hours before initiating the experiment, HEK-293T cell-culture medium was replaced by serum-starved DMEM medium. Then, cells were detached, resuspended in growing medium containing 50 μM zardaverine and placed in 384-well microplates (2,500 cells/well). Cells were pretreated (15 min) with CBG -or vehicle- and stimulated with agonists (15 min) before adding 0.5 μM forskolin or vehicle. Readings were performed after 15 min incubation at 25°C. […] Fluorescence at 665 nm was analyzed in a PHERAstar Flagship microplate reader equipped with an HTRF optical module (BMG Lab Technologies, Offenburg, Germany).

human CB1 receptor = molecular target: T5, human CB1 receptor (Homo sapiens, UniProt P21554); assay: biochemical; type: binding; details: radioligand 0.3 nM [3H]-CP-55940, CHO membranes
T5 construct: expressed in transfected cells; membranes

CB1R [8] = details: cited from earlier work
PPARγ = molecular target: PPARγ; set-up: method as in Granja et al., 2012; Nadal et al., 2017; details: ref Granja et al., 2012; Nadal et al., 2017; cited from earlier work
SNAP-CB2R = molecular target: T6, SNAP-CB2R (Homo sapiens, UniProt P34972); assay: Homogeneous HTRF competition binding in living HEK-293T cells (fluorophore-conjugated CM-157); details: living HEK-293T cells expressing SNAP-CB2R, 20 nM fluorescent ligand
T6 construct: host or cells: HEK-293T, transient transfection (PEI)

CB1R [9] = test system: T2, CB1R; assay: cAMP determination in HEK-293T cells; type: cell-based, human
Procedure: as §1
(§3) Signaling experiments have been performed as previously described ([Navarro et al., 2010], [2016], [2018b]; [Hinz et al., 2018]). Two hours before initiating the experiment, HEK-293T cell-culture medium was replaced by serum-starved DMEM medium. Then, cells were detached, resuspended in growing medium containing 50 μM zardaverine and placed in 384-well microplates (2,500 cells/well). Cells were pretreated (15 min) with CBG -or vehicle- and stimulated with agonists (15 min) before adding 0.5 μM forskolin or vehicle. Readings were performed after 15 min incubation at 25°C. HTRF energy transfer measures were performed using the Lance Ultra cAMP kit (PerkinElmer, Waltham, MA, United States). Fluorescence at 665 nm was analyzed in a PHERAstar Flagship microplate reader equipped with an HTRF optical module (BMG Lab Technologies, Offenburg, Germany).

CB2R [10] = test system: T3, CB2R; assay: cAMP determination in HEK-293T cells; type: cell-based, human
Procedure: as §1, §3

[11] = CBG alone, 1 nM to 10 μM, CB1R-expressing cells
[12] = CBG alone, 1 nM to 10 μM, CB2R-expressing cells
[13] = 100 nM CBG pretreatment, cells co-expressing CB1R and CB2R
[14] = CBG alone, dose-effect, cells expressing CB1R and CB2R

T1 sequence (P34972 whole entry): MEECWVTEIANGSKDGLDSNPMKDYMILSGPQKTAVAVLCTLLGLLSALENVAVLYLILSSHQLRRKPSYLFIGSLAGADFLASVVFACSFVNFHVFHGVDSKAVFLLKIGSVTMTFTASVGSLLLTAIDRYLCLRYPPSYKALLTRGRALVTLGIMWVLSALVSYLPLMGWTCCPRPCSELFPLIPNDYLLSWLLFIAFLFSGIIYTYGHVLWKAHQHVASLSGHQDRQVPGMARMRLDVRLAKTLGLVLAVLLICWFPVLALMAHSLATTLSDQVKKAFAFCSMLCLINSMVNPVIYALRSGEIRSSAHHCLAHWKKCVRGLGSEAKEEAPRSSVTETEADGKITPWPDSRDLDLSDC
T6 sequence (P34972 whole entry): as above
T5 sequence (P21554 whole entry): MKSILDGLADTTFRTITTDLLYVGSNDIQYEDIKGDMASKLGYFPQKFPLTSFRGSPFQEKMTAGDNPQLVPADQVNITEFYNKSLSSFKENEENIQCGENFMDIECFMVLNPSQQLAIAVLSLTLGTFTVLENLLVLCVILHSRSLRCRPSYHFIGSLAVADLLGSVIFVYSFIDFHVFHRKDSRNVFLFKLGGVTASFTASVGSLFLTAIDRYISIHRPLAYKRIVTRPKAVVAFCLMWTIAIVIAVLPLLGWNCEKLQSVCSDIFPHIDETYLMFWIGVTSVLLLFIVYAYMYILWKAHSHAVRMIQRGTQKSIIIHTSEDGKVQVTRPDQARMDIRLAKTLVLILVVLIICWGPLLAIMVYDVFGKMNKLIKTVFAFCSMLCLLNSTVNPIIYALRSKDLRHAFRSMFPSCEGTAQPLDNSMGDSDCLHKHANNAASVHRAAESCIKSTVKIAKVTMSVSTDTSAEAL

CCCCCc1cc(O)c(C/C=C(\C)CCC=C(C)C)c(O)c1 [CBG, cannabigerol]
Ki (human CB2 receptor [1]): 1220 nM | Ki (human CB2 receptor [2]; radioligand 3 nM [3H]-WIN-55,212-2, CHO membranes, read-out: CB2 – Ki): 2660 nM | Ki (human CB2 receptor [2]; radioligand [3H]-WIN-55,212-2, read-out: Ki, competition of [3H]-WIN-55,212-2 binding to CB2R): 2700 nM | Ki (AEA cell uptake): 11300 nM | Effect on [35S]GTPγS binding upon 5HT1A stimulation (5HT1A receptor): able to antagonize | Effect on agonist-induced β-arrestin recruitment (CB1R [3]; 100 nM or 1 μM CBG, 100 nM AEA or ACEA, CB1R): unable to modify | β-arrestin recruitment (CB1R [3]; [11]): small increase | Effect on β-arrestin recruitment induced by agonists (CB2R [4]; 100 nM or 1 μM CBG, 100 nM AEA or JWH133, CB2R): did not affect | β-arrestin recruitment (CB2R [4]; [12]): noteworthy | Ki (CB2R [5]; CHO cells expressing the human CB2R, preliminary results, ref Gauson et al., 2007, Pertwee, 2008): 300 to 500 nM | Ki (CB2R [5]; CHO cells expressing the human receptor, ref Cascio et al., 2010): 2600 nM | EC50 (α2-adrenoceptor): 0.2 nM | Effect on [35S]GTPγS binding (mouse brain membranes): antagonized | Effect on agonist actions on β-arrestin recruitment [6, 13]: negligible | β-arrestin recruitment [6, 14]: negative cross-talk was still evident | Effect on AEA, ACEA and/or JWH133 actions in cAMP-related assays [7, 13]: significant effects, always reducing the effect of the agonists | Effect on cAMP level [7, 14]: additive | Ki (human CB1 receptor): 1050 nM | Ki (CB1R [8]; membranes from mice brain, preliminary results, ref Gauson et al., 2007, Pertwee, 2008): 300 to 500 nM | Ki (CB1R [8]; mouse brain membranes, ref Cascio et al., 2010): 381 nM | Ki (PPARγ): 11700 nM | Ki (SNAP-CB2R): 152 nM | Effect on AEA and ACEA induced effects on forskolin-induced cAMP (CB1R [9]; 100 nM or 1 μM CBG pretreatment, 100 nM AEA or ACEA, CB1R): significant decrease | Effect on forskolin induced cAMP levels (CB1R [9]; [11]): small decrease | Effect on AEA and JWH133 effects on forskolin-induced cAMP levels (CB2R [10]; 100 nM or 1 μM CBG pretreatment, 100 nM AEA or JWH133, CB2R): reduced the effects of AEA and JWH133 | Effect on forskolin-induced cAMP levels (CB2R [10]; [12]): small and similar to that exerted in CB1R-expressing cells
